“And” between values parts separate entries of the source, which are not always exact repeats. Equal values may be shown once.

A short description of series [1]: Stability in phosphate-buffered saline (PBS), radio-HPLC. The class given is physicochemical. The note with it: 24 h post-incubation, 37 °C, indium-111 labeled, intact fraction. Here is the method: [^111In]In-22 or [^111In]In-30 (~10 MBq, 20 µL) was mixed with 80 μL of PBS (0.01 M, pH 7.4) and incubated at 37 °C for up to 24 h. A sample of the PBS solution was loaded directly onto the radio-HPLC at 1, 4, and 24 h post-incubation.

Series [2] deals with T1, Recombinant human PSMA (rhPSMA) (Homo sapiens, UniProt Q04609).
T1 construct: purchased R&D systems, Abingdon, UK
The experiment in a line: NAALADase assay (competitive inhibition, Amplex Red glutamate readout). It counts as biochemical. Conditions: rhPSMA, substrate Ac-Asp-Glu, 1 h 37 °C. On the procedure: Recombinant human PSMA (rhPSMA; R&D systems, Abingdon, UK) was diluted in assay buffer (50 mM HEPES, 0.1 M NaCl, pH 7.5) to 0.4 μg/mL. The substrate Ac–Asp–Glu (40 μM) was mixed with the synthesized derivatives and with a reference (PSMA-617) at concentrations ranging from 10^−6 to 10^−13 M in a final volume of 12.5 μL assay buffer. The mixtures were combined with 12.5 μL of the rhPSMA solution and incubated for 1 h at 37 °C in 384-well black polystyrene microplates (ThermoFisher, Bleiswijk, The Netherlands). The amount of glutamate released was measured by incubating with 25 μL of a working solution of the Amplex Red glutamic acid kit (ThermoFisher, Bleiswijk, The Netherlands) at 37 °C for 30 min. Fluorescence was measured with a HIDEX Sense Optical System (Goedereede, The Netherlands) with excitation at 535 nm and emission at 590 nm. Data were normalized and analyzed using a one-site total binding regression with GraphPad Prism v9.0 (GraphPad Software, San Diego, CA, USA).

Series [3] is described as follows: Stability in mouse serum, radio-HPLC. The note with it: 24 h post-incubation, 37 °C, indium-111 labeled, intact fraction. It counts as in vitro ADME. On the procedure:
[^111In]In-22 or [^111In]In-30 (~35 MBq, 70 µL) was mixed with 330 μL of mouse serum and incubated at 37 °C for up to 24 h. After 1, 4, and 24 h incubation, 50 μL of the mouse serum solution was added to a separate vial containing 50 µL of acetonitrile. The sample was centrifuged at 5000× g for 20 min. The supernatant was analyzed by radio-HPLC.

Series [4] in a line: Stability in aqueous solution (LC-MS). The class given is physicochemical. Conditions: water, room temperature. On the procedure:
Dimerization was performed by elongation of 16 with 3-tritylthiopropionic acid, and reaction with 3,6-dichlorotetrazine following a biphasic protocol after cleavage from the solid support. Finally, addition of the chelator DOTA-TCO 26 was performed via the inverse electron-demand Diels–Alder reaction (IEDDA) to yield the dimeric product 27. However, it was noticed that 27 was not stable in aqueous solution, with degradation observed by LC-MS 20 min after incubation in water at room temperature. […] We hypothesized that it could originate from intramolecular interaction between the sulfur and the carboxylic acid group of the aspartic acid. Therefore, we modified the design of the dimer to include a longer spacer between 16 and the tetrazine. We replaced the 3-mercaptopropionic acid with a 6-mercaptohexanoic acid spacer. The resulting compound 30 (Scheme 2), obtained after dimerization and IEDDA reaction, was radiolabeled with In-111 and obtained in high RCY (>99%) and RCP (92.3%). It was stable in aqueous media and in the radiolabeling conditions, but also in PBS and mouse serum (>90% intact [^111In]In-30 at 24 h; Figure S7).

The target of series [5] is PSMA. Further details: method as in PMID 30097503. Conditions: cited from earlier work.
In series [6] the test system is PSMA. Further details: method as in PMID 27279903. The note with it: PSMA-binding ligand with different chelators; cited from earlier work.

T1 sequence (Q04609 whole entry): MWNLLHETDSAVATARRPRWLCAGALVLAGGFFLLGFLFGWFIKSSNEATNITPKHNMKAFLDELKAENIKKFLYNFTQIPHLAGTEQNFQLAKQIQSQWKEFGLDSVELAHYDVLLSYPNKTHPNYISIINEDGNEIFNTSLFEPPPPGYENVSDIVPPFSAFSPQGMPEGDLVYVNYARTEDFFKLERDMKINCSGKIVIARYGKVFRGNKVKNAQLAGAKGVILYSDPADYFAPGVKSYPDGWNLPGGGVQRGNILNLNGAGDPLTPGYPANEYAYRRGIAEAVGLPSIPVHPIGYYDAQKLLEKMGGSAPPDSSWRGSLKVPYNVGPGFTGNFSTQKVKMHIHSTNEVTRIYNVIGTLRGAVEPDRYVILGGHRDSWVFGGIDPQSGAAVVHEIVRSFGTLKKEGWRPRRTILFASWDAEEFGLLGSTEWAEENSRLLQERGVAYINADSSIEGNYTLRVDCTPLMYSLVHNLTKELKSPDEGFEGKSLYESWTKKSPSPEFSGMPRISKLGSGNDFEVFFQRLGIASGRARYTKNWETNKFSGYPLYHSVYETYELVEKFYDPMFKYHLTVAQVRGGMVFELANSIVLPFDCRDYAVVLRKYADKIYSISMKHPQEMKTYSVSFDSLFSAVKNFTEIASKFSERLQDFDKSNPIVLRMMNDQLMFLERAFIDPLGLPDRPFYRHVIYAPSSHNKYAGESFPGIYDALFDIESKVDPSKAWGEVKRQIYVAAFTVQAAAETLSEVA

Turning to `CC(C)CC(NC(=O)C(Cc1ccccc1)NC(=O)C(CC(=O)O)NC(=O)CCCCCSC1=NNC(SCCCCCC(=O)NC(CC(=O)O)C(=O)NC(Cc2ccccc2)C(=O)NC(CC(C)C)C(O)CC(=O)NCCCCCC(=O)NCCCCC(NC(=O)NC(CCC(=O)O)C(=O)O)C(=O)O)=C2CCC(OC(=O)NCCCNC(=O)CN3CCN(CC(=O)O)CCN(CC(=O)O)CCN(CC(=O)O)CC3)CCCC12)C(O)CC(=O)NCCCCCC(=O)NCCCCC(NC(=O)NC(CCC(=O)O)C(=O)O)C(=O)O` [Compound 30, [EuK(Ahx-Sta-L-Phe-Asp-SHx)]2-Tz-TCO-DOTA], the “Stability in PBS (%)” value in series [1] was above 90%. The half-maximal inhibitory concentration (IC50) (commonly the midpoint of a concentration-inhibition curve) in series [2] is 1.05 nM and 1 to 1.6 nM. In series [3], the “Stability in Mouse Serum (%)” value is listed as above 90%. In addition, in series [4], the “Stability in aqueous solution” value is “stable”.
For `N[C@@H](CCC(=O)O)C(=O)[O-].[Na+]` [Monosodium glutamate], the Ki – broadly, the dissociation constant of the complex between target and ligand, obtained from inhibition or displacement – at PSMA [5] was 900 nM.
Consider `O=C(O)CCC(NC(=O)NC(CCCCNC(=O)C(Cc1ccc2ccccc2c1)NC(=O)C1CCC(CNC(=O)CCC(C(=O)O)N2CCN(CC(=O)O)CCN(CC(=O)O)CC2)CC1)C(=O)O)C(=O)O` (stereo not drawn) [NODAGA-conjugate], for which the Internalization rate in the series on PSMA [6] is recorded as 48.5 ± 16.4%.

Values taken from publication PMC10223019, “Preclinical Evaluation of a PSMA-Targeting Homodimer with an Optimized Linker for Imaging of Prostate Cancer” (Molecules, 2023).
